Reference: patent US5330983A, “14-O-p-chlorobenzoylaconine and analgesic/anti-inflammatory agent containing the same” (priority 1991, dated 1994)
Where a name gives a salt, the structure may show the parent alone.

Legend:
[1] = tested on: Male mice of the Std:ddY Strain; assay: Analgesic activity by the phenylquinone-induced writhing method; format: in vivo; conditions: phenylquinone i.p., counted for 15 min, n = 8~10
Procedure: Measurement of Analgesic Activity by the Phenylquinone-Induced Writhing Method
Male mice of the Std:ddY Strain (20-25 g), which were fasted for one night before the initiation of the experiment, were used. Test compound hardly soluble in water was used in 3% suspension in gum arabic. Test compound taking a salt form was used in aqueous solution. 0.03% phenylquinone in 0.5% ethanol solution was injected i.p. (10 ml/kg) at 2 hours and 55 minutes after the compound was administered p.o. After 5 minutes, the number of writhings was counted for a period of 15 minutes.

[2] = tested on: Male mice of the Std:ddY Strain; assay: Analgesic activity by the acetic acid-induced writhing method; format: in vivo; conditions: acetic acid i.p., counted for 10 min, n = 10
Procedure: Measurement of Analgesic Activity by the Acetic Acid-Induced Writhing Method
Male mice of the Std:ddY Strain (20-25 g), which were fasted for one night before the initiation of the experiment, were used. Test compound hardly soluble in water was used in 3% suspension in gum arabic. Test compound taking a salt form was used in aqueous solution. 0.7% acetic acid in 0.9% physiological saline solution was injected i.p. (10 ml/kg) at 2 hours and 50 minutes after the test compound was administered p.o. After 10 minutes, the number of writhing movements was counted for a period of 10 minutes.

[3] = tested on: Male mice of the Std:ddY Strain; assay: Analgesic activity by the hot plate method; format: in vivo; conditions: 52° C. plate
Procedure: Measurement of Analgesic Activity by the Hot Plate Method
Male mice of the Std:ddY Strain (20-25 g), which were fasted for one night before the initiation of the experiment, were used. Test compound hardly soluble in water was used in 3% suspension in gum arabic. Test compound taking a salt form was used in aqueous solution. Mice were placed on a cyrindric hot plate (diameter: 22 cm, height: 11 cm) made of copper which was fixed in a water bath adjusted to 52° C. so that each animal's four paws came into contact with the plate and the time taken to show the nociceptive response (jumping and licking) as an index of pain was measured. Mice showing response times above 25 seconds were excluded from the experiment. The analgesic activity of the compound was measured at 1, 3 and 5 hours after test compound was administered p.o. The results are shown in Table 4.

[4] = tested on: Male rats of the Wistar strain; assay: Antiinflammatory activity by the carrageenin-induced hind paw edema; format: in vivo; conditions: 100 mg/kg p.o.
Procedure: Measurement of Antiinflammatory Activity by the Carrageenin-Induced Hind Paw Edema
Male rats of the Wistar strain (5 weeks old, 120-130 g), which were fasted for one night before the initiation of the experiment, were used. One hour after the oral administration of test compound, λ-carrageenin (1%) was injected s.c. under the plantar surface of the right hind paw. Thereafter, at one hour intervals for 6 hours, the volume of the paw was measured using an apparatus therefor. The results were described as a swelling rate (%) calculated using the following equation:
(R-L)×100/L=swelling rate (%)
R: the volume of the right hind paw
L: the volume of the left hind paw

[5] = tested on: Male mice of the Std:ddY Strain; assay: Analgesic activity by the tail-pressure method; format: in vivo
Procedure: Measurement of Analgesic Activity by the Tail-Pressure Method
Male mice of the Std:ddY Strain (20-25 g), which were fasted for one night before the initiation of the experiment, were used. Test compound hardly soluble in water was used in 3% suspension in gum arabic. Test compound taking a salt form was used in aqueous solution. Experiments were made with a tail-pressure apparatus. Before the administration of test compounds, the pain threshold was measured twice at intervals of 30 minutes and those mice indicating a pain threshold of 30 to 80 mmHg were selected and used. The pain threshold of each mouse was measured at 1, 3 and 5 hours after test compounds were administered p.o. The results were described as a percentage of the pain threshold after the treatment with test compound relative to that before the treatment with test compound.

in vivo = assay: in vivo; set-up: species or system mice (Std:ddY); conditions: mouse, in vivo, po; mortality during 72 hours; Litchfield-Wilcoxon
Description: (§1) EXPERIMENT EXAMPLE 6 (ACUTE TOXICITY)
(§2) Male mice of the Std:ddY Strain (20-25 g), which were fasted for one night before the initiation of the experiment, were used. Test compound hardly soluble in water was used in 3% suspension in gum arabic. Test compound taking a salt form was used in aqueous solution.

[6] = tested on: Male mice of the Std:ddY Strain; assay: in vivo; conditions: p.o., mortality during 72 hours, Litchfield-Wilcoxon, 4320 min
Description: as §1, §2

Property and solubility = format: physicochemical

| Compound | The number of writhings, mean ± S.E. ([1]; 3 mg/kg p.o.) | The number of writhings, mean ± S.E. ([1]; 10 mg/kg p.o.) | The number of writhings, mean ± S.E. ([1]; 30 mg/kg p.o.) | The number of writhings, mean ± S.E. ([2]; 3 mg/kg p.o.) | The number of writhings, mean ± S.E. ([2]; 10 mg/kg p.o.) | The number of writhings, mean ± S.E. ([2]; 30 mg/kg p.o.) | Pain threshold (s, mean ± S.E.) ([3]; 100 mg/kg p.o., 1 h) | Pain threshold (s, mean ± S.E.) ([3]; 100 mg/kg p.o., 3 h) | Pain threshold (s, mean ± S.E.) ([3]; 100 mg/kg p.o., 5 h) | Pain threshold (s, mean ± S.E.) ([3]; 300 mg/kg p.o., 1 h) | Pain threshold (s, mean ± S.E.) ([3]; 300 mg/kg p.o., 3 h) | Pain threshold (s, mean ± S.E.) ([3]; 300 mg/kg p.o., 5 h) | Swelling rate (%, mean ± S.E.) ([4]; 1 h after carrageenin) | Swelling rate (%, mean ± S.E.) ([4]; 2 h after carrageenin) | Swelling rate (%, mean ± S.E.) ([4]; 3 h after carrageenin) | Swelling rate (%, mean ± S.E.) ([4]; 4 h after carrageenin) | Swelling rate (%, mean ± S.E.) ([4]; 5 h after carrageenin) | Swelling rate (%, mean ± S.E.) ([4]; 6 h after carrageenin) | Pain threshold (%, mean ± S.E.), posttreatment relative to pretreatment ([5]; 100 mg/kg p.o., 1 h) | Pain threshold (%, mean ± S.E.), posttreatment relative to pretreatment ([5]; 100 mg/kg p.o., 3 h) | further results |
| --- | --- | --- | --- | --- | --- | --- | --- | --- | --- | --- | --- | --- | --- | --- | --- | --- | --- | --- | --- | --- | --- |
| CCN1CC2(COC)C(O)CC(OC)C34C5CC6(O)C(OC)C(O)C(C5C6OC(=O)c5ccccc5)C(C(OC)C23)C14 (stereo not drawn) [8-deoxy-14-O-benzoylaconine, reference compound] | 27.1 ± 2.7 | 25.0 ± 3.0 | 24.0 ± 2.3 | 24.1 ± 2.7 | 21.9 ± 2.6 | 17.8 ± 2.5 | 17.3 ± 1.7 s | 17.9 ± 2.1 s | 18.9 ± 1.7 s | 18.6 ± 1.6 s | 24.0 ± 2.3 s | 19.6 ± 2.0 s | 24.8 ± 9.2% | 36.3 ± 6.3% | 59.8 ± 6.3% | 63.5 ± 1.0% | 70.3 ± 3.9% | 72.2 ± 6.0% | 101.8 ± 14.1% | 100.2 ± 7.2% | Pain threshold (%, mean ± S.E.), posttreatment relative to pretreatment ([5]; 100 mg/kg p.o., 5 h): 105.6 ± 9.2%; Pain threshold (%, mean ± S.E.), posttreatment relative to pretreatment ([5]; 300 mg/kg p.o., 1 h): 115.6 ± 17.0%; Pain threshold (%, mean ± S.E.), posttreatment relative to pretreatment ([5]; 300 mg/kg p.o., 3 h): 116.2 ± 12.0%; Pain threshold (%, mean ± S.E.), posttreatment relative to pretreatment ([5]; 300 mg/kg p.o., 5 h): 110.2 ± 7.0%; LD50 at 72 h (in vivo): > 100 mg/kg |
| CCN1C[C@]2(COC)[C@H](O)C[C@H](OC)[C@]34C1[C@H]([C@H](OC)[C@H]23)[C@]1(O)[C@H]2[C@@H](OC(=O)c3ccc(Cl)cc3)[C@](O)(C[C@H]24)[C@@H](OC)[C@@H]1O [14-O-p-chlorobenzoylaconine tartrate] | 21.1 ± 2.4 | 18.3 ± 2.2 | 15.7 ± 2.7 | 17.8 ± 2.5 | 15.5 ± 2.3 | 10.7 ± 2.1 | 17.3 ± 2.2 s | 26.7 ± 3.2 s | 24.7 ± 2.1 s | 18.7 ± 1.7 s | 42.5 ± 11.0 s | 25.7 ± 2.7 s | 16.0 ± 3.6% | 31.5 ± 3.1% | 47.3 ± 7.4% | 56.1 ± 2.0% | 49.6 ± 5.0% | 57.6 ± 9.0% | 102.6 ± 3.4% | 141.1 ± 8.3% | Pain threshold (%, mean ± S.E.), posttreatment relative to pretreatment ([5]; 100 mg/kg p.o., 5 h): 128.0 ± 4.9%; Pain threshold (%, mean ± S.E.), posttreatment relative to pretreatment ([5]; 300 mg/kg p.o., 1 h): 147.0 ± 7.8%; Pain threshold (%, mean ± S.E.), posttreatment relative to pretreatment ([5]; 300 mg/kg p.o., 3 h): 240.4 ± 25.0%; Pain threshold (%, mean ± S.E.), posttreatment relative to pretreatment ([5]; 300 mg/kg p.o., 5 h): 202.9 ± 19.7%; LD50 [6]: > 1000 mg/kg |
| CCN1C[C@]2(COC)[C@H](O)C[C@H](OC)[C@]34C1[C@H]([C@H](OC)[C@H]23)[C@]1(O)[C@H]2[C@@H](OC(=O)c3ccc(Cl)cc3)[C@](O)(C[C@H]24)[C@@H](OC)[C@@H]1O [14-O-p-chlorobenzoylaconine] | 20.1 ± 3.6 | 17.3 ± 2.8 | 15.9 ± 3.5 | 19.8 ± 2.5 | 17.3 ± 2.4 | 12.9 ± 3.7 | 21.6 ± 2.2 s | 21.6 ± 2.0 s | 27.6 ± 0.9 s | 22.2 ± 1.5 s | 38.4 ± 3.3 s | 24.0 ± 1.6 s | 22.4 ± 8.0% | 28.0 ± 2.4% | 51.0 ± 2.8% | 58.6 ± 2.4% | 66.8 ± 3.7% | 72.9 ± 5.3% | 100.4 ± 2.5% | 129.6 ± 10.3% | Pain threshold (%, mean ± S.E.), posttreatment relative to pretreatment ([5]; 100 mg/kg p.o., 5 h): 108.0 ± 6.0%; Pain threshold (%, mean ± S.E.), posttreatment relative to pretreatment ([5]; 300 mg/kg p.o., 1 h): 120.0 ± 7.3%; Pain threshold (%, mean ± S.E.), posttreatment relative to pretreatment ([5]; 300 mg/kg p.o., 3 h): 182.0 ± 21.7%; Pain threshold (%, mean ± S.E.), posttreatment relative to pretreatment ([5]; 300 mg/kg p.o., 5 h): 166.0 ± 20.1%; Solubility in organic solvents (Property and solubility; ether, chloroform, benzene, methanol, ethanol, acetone, ethyl acetate, pyridine and dimethyl sulfoxide): Soluble; Solubility in hexane and water (Property and solubility; hexane and water): Insoluble; LD50 at 72 h (in vivo): > 1000 mg/kg; LD50 ([6]; listed as compound of the formula (I)): ≥ 1,000 mg/kg |
